This note sets out measurements from ChEMBL document CHEMBL1201862, “PubChem BioAssay data set” (2004).

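1) Cells in 96-well plates. 2) Compound, 48 h, 5 concentrations. 3) Linear interpolation between surrounding doses. 4) Unreached endpoint = highest concentration. The concentration for 50% growth inhibition is given as GI50.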 Calls of active or inactive are those of the source. Cut-off read from the data, not from the text of the source: active = GI50 up to about 1.1 µM and inactive = higher.

Among the test systems are ACHN; HOP-92; HT-29; Hs-578T; MCF7; NCI-H226; NCI-H23; NCI-H522; OVCAR-5; OVCAR-8; PC-3; SF-268; SF-539; SK-MEL-28; SK-MEL-5; SW-620; U-251; UACC-257; UACC-62; UO-31.
Holding throughout (assay): NCI-60 cell line screen, 48 h

For the molecule `COc1ccc(/C(C)=C2\CCCN(Cc3ccccc3)C2)cc1`, the GI50 in the test on ACHN was 28.1 µM (inactive); in the test on HOP-92, 17.7 µM (inactive); with HT-29, 18.9 µM (inactive); with Hs-578T, 13.5 µM (inactive); in the test with MCF7 it was 19.2 µM (inactive); in the test with NCI-H226, 21.5 µM (inactive). Also, the GI50 with NCI-H23 was 25.8 µM (inactive); with NCI-H522 it was 13.4 µM (inactive); with OVCAR-5 it was 31.4 µM (inactive); in the test on OVCAR-8 it was 18.3 µM (inactive); with PC-3 it was 23 µM (inactive); in the test with SF-268, 17.4 µM (inactive). The GI50 in the test with SF-539 is 15.8 µM (inactive); with SK-MEL-28, 22 µM (inactive); with SK-MEL-5, 17.5 µM (inactive); in the test with SW-620, 19.1 µM (inactive); in the test on U-251 it was 19.6 µM (inactive); in the test with UACC-257 it was 29.2 µM (inactive). For the same molecule, the GI50 with UACC-62 was 19.8 µM (inactive); with UO-31, 19.9 µM (inactive).
For `N#CC(C#N)=CNC(N)=S`, the GI50 in the test with ACHN, with HOP-92, in the test with HT-29, with Hs-578T, with MCF7 and in the test with NCI-H226 was > 100 µM (inactive) each time. In addition, the GI50 with NCI-H23, with NCI-H522, in the test on OVCAR-5, in the test with OVCAR-8, in the test with PC-3 and with SF-268 was > 100 µM (inactive) each time. Further, the GI50 with SF-539, in the test with SK-MEL-28, in the test with SK-MEL-5, in the test on SW-620, in the test on U-251 and in the test with UACC-257 was > 100 µM (inactive) throughout. Further, the GI50 with UACC-62 is > 100 µM (inactive).
On to `O=c1[nH]cnc2c1ncn2C1SC(CO)C(O)C1O` (centres undefined), for which the GI50 in the test with ACHN, in the test with HOP-92, in the test with HT-29, in the test with Hs-578T, in the test on MCF7 and with NCI-H226 was > 100 µM (inactive) each time. The GI50 in the test on NCI-H23, with NCI-H522, in the test on OVCAR-5, in the test with OVCAR-8, in the test with PC-3 and with SF-268 was > 100 µM (inactive) each time. Also, the GI50 in the test on SF-539, in the test on SK-MEL-28, in the test with SK-MEL-5, in the test with SW-620, with U-251 and with UACC-257 was > 100 µM (inactive) throughout. In addition, the GI50 with UACC-62 and in the test on UO-31 was > 100 µM (inactive) each time.
Regarding `O=c1c2c(-c3ccccc3)onc2n(-c2ccccc2)c(=O)n1-c1ccccc1`, the GI50 in the test with ACHN was 31.2 µM (inactive); in the test on HOP-92, > 100 µM (inactive); in the test on HT-29, 21 µM (inactive); in the test with Hs-578T, 28.4 µM (inactive); in the test with MCF7, > 100 µM (inactive); in the test on NCI-H226 it was 26.1 µM (inactive). In addition, the GI50 in the test on NCI-H23 is 19 µM (inactive); with NCI-H522 it was 15.7 µM (inactive); in the test with OVCAR-5, 16.4 µM (inactive); with OVCAR-8, 17.5 µM (inactive); in the test on PC-3 it was 18.6 µM (inactive); with SF-268, 30.1 µM (inactive). In addition, the GI50 in the test on SF-539 was > 100 µM (inactive); in the test on SK-MEL-5 it was > 100 µM (inactive); in the test on SW-620, > 100 µM (inactive); in the test with U-251 it was > 100 µM (inactive); in the test on UACC-257, 19.7 µM (inactive); with UACC-62, 14.5 µM (inactive). Moreover, in the test with UO-31, the GI50 is 14.9 µM (inactive).
`Cc1c(Cl)cccc1NC(=O)/C=C/c1ccccc1`: the GI50 was 89.5 µM (inactive) in the test on ACHN; 21 µM (inactive) in the test with HOP-92; > 100 µM (inactive) in the test with HT-29; 38.3 µM (inactive) in the test with Hs-578T; > 100 µM (inactive) with MCF7; 60.1 µM (inactive) in the test on NCI-H226. Besides, the GI50 in the test on NCI-H23 was > 100 µM (inactive); in the test with NCI-H522, > 100 µM (inactive); in the test with OVCAR-5, > 100 µM (inactive); with OVCAR-8, 38 µM (inactive); in the test on PC-3 it was > 100 µM (inactive); with SF-268 it was 74.1 µM (inactive). Moreover, the GI50 with SF-539 was 43 µM (inactive); in the test with SK-MEL-28, 88.5 µM (inactive); with SK-MEL-5, > 100 µM (inactive); with SW-620, > 100 µM (inactive); in the test with U-251 it was > 100 µM (inactive); with UACC-257, > 100 µM (inactive). In addition, the GI50 in the test with UACC-62 is > 100 µM (inactive).
As for `CO[C@@H]1O[C@H](C(=O)c2ccccc2)[C@H]2OC(C)(C)O[C@@H]12`, the GI50 in the test with HOP-92 was > 100 µM (inactive); in the test on Hs-578T it was 83 µM (inactive); in the test with MCF7, > 100 µM (inactive); with NCI-H226, > 100 µM (inactive); in the test on NCI-H23, 94.8 µM (inactive); in the test with NCI-H522, > 100 µM (inactive). For the same molecule, the GI50 in the test with OVCAR-5, in the test with OVCAR-8, in the test on PC-3, with SF-268, in the test with SF-539 and with SK-MEL-5 was > 100 µM (inactive) each time. Further, the GI50 in the test with SW-620 is 56.8 µM (inactive); in the test on U-251 it was > 100 µM (inactive); with UACC-257 it was > 100 µM (inactive); with UACC-62, > 100 µM (inactive); with UO-31 it was > 100 µM (inactive).
Take `COc1cc(C2=NNC(=O)c3ccccc3N2c2nc(-c3cccs3)nc3ccc(Br)cc23)cc(OC)c1OC`: the GI50 in the test on ACHN is 7.11 µM (inactive); with HOP-92, 4.83 µM (inactive); with HT-29, 7.73 µM (inactive); in the test with Hs-578T, 5.48 µM (inactive); in the test on MCF7 it was 2.33 µM (inactive); in the test with NCI-H226, 36.1 µM (inactive). Also, the GI50 in the test with NCI-H23 was 7.11 µM (inactive); in the test with NCI-H522 it was 9.06 µM (inactive); in the test on OVCAR-5 it was 40.1 µM (inactive); with OVCAR-8, 4.62 µM (inactive); in the test on PC-3 it was 10.3 µM (inactive); with SF-268 it was 8.91 µM (inactive). Besides, the GI50 is 10.9 µM (inactive) with SF-539; 13.3 µM (inactive) in the test with SK-MEL-28; 10.5 µM (inactive) in the test on SK-MEL-5; 18.4 µM (inactive) in the test on SW-620; 6.1 µM (inactive) in the test on U-251; 21.5 µM (inactive) in the test on UACC-257. Also, the results for the GI50 with UACC-62 and with UO-31 were 12.4 µM (inactive) and 16.1 µM (inactive), respectively.
For `CCc1ccc(/C=C\c2cc(OC)c(OC)c(OC)c2)cc1`, the GI50 was 0.0285 µM (active) with ACHN; 0.00813 µM (active) in the test on HOP-92; 0.00993 µM (active) in the test on HT-29; 0.00255 µM (active) in the test with Hs-578T; 0.0375 µM (active) with MCF7; 0.024 µM (active) in the test on NCI-H226. Moreover, the GI50 is 0.0461 µM (active) in the test with NCI-H23; 0.0118 µM (active) in the test with NCI-H522; 0.391 µM (active) in the test with OVCAR-5; 0.0456 µM (active) in the test with OVCAR-8; 0.00325 µM (active) in the test with PC-3; 0.149 µM (active) in the test on SF-268. Besides, the GI50 in the test with SF-539 is 0.0101 µM (active); in the test with SK-MEL-28 it was 0.0627 µM (active); with SK-MEL-5, 0.0181 µM (active); in the test on SW-620, 0.00897 µM (active); in the test with U-251, 0.0102 µM (active); in the test on UACC-257, 0.0268 µM (active). The figures for the GI50 with UACC-62 and in the test with UO-31 were 0.0132 µM (active) and 0.0355 µM (active), respectively.
